This is an account of results in US10889591B2, “PDE9 inhibitor and use thereof” (Nanjing TransThera Biosciences Co. Ltd., priority 2017, dated 2021).

Read-outs that look alike come from different tables or passages of the source.

One may read the Tmax as the time from dosing to the highest level. One may read the clearance as the volume of plasma or blood freed of the substance per unit of time.

Data set [1] in a line: in vitro. To be noted: human, microsomes.
The conditions of data set [2]: human; for CLint: microsomes.
Data set [3] can be described thus: Canine pharmacokinetic evaluation. The class given is in vivo. To be noted: Beagle dogs; for Vz_obs iv (apparent distribution volume) / AUC(0-inf) / half-life / bioavailability / clearance: n = 3; for Tmax / AUC(0-inf) / half-life / bioavailability / clearance: dog, plasma; for Tmax: n = 3, median; for clearance: read-out: Cl_obs iv (clearance rate) (converted). An excerpt:
1. Animal Administration and Sample Collection
2. Sample Analysis Method
3. Data Processing Method

A short description of data set [4]: Rat pharmacokinetic evaluation. It is filed as in vivo, SD male rats. The settings on record: SD rat, intravenous bolus 1 mg/kg; for AUC(0-t) / clearance / half-life: male, Sprague-Dawley, plasma; for AUC(0-t): read-out: AUClast iv; for clearance: read-out: Cl_obs iv (clearance rate) (converted); for half-life: read-out: tz1/2 iv (terminal elimination half-life) (converted).

Data set [5] can be described thus: Rat pharmacokinetic evaluation. It is filed as in vivo, SD male rats. To be noted: male, Sprague-Dawley, plasma, SD rat; for Tmax / AUC(0-t) / half-life: po, intragastric 5 mg/kg; for Tmax: median; for AUC(0-t): read-out: AUClast po; for half-life: read-out: tz1/2 po (terminal elimination half-life) (converted); for bioavailability: dose iv/po 1/5 mg/kg, read-out: F % (absolute bioavailability). As to the method:
Experimental Example 4: Rat Pharmacokinetic Evaluation of the Compounds of the Invention
Aim: The in vivo pharmacokinetic parameters of the compounds in SD male rats (purchased from Beijing Vital River Animal Technology Co., Ltd.) were evaluated and bioavailability of the compounds was examined.
Animal Administration and Sample Collection:
The solution of compounds 65, 90, 107, 158 was intragastrically administered to SD rat at a dose of 5.0 mg/kg.
The experimental compound 76 was dissolved in 30% DMF+30% PEG400+40% saline to prepare a solution. The solution of compound 76 was intragastrically administered to SD rat at a dose of 5.0 mg/kg.
The experimental compound 76 was dissolved in 30% DMF+30% PEG400+40% saline to prepare a solution.
The experimental compounds 84 and 96 were dissolved in 5% DMSO+10% PEG400+85% (28% HP-β-CD) saline to prepare a solution. The solution of compounds 84 and 96 was intragastrically administered to SD rat at a dose of 5.0 mg/kg.
The experimental compounds 84 and 96 were dissolved in 5% DMSO+10% PEG400+85% (28% HP-β-CD) saline to prepare a solution.
The animals were fixed. The tail was heated with a water bath at 10 min before each time point. About 100 μL of blood from tail vein was collected, and then placed in an anti-coagulation tube containing EDTA-K2 after collection. Blood samples were centrifuged at 8000 rpm at 4° C. for 6 min to obtain plasma samples.
The concentration of test sample was output using Analyst 1.6.1 from AB SCIEX.

A short description of data set [6]: Stability in human liver microsome.
Data set [7] has as its target Human PDE9 (Homo sapiens (Human), UniProt O76083). To be noted: background statement, in words; cited from earlier work.
Where [8] appears, read: intravenous bolus 1 mg/kg, read-out: AUCinf iv.
[9] abbreviates: intravenous bolus 1 mg/kg, read-out: tz1/2 iv (terminal elimination half-life) (converted).

Sequence of Human PDE9 (O76083 whole entry): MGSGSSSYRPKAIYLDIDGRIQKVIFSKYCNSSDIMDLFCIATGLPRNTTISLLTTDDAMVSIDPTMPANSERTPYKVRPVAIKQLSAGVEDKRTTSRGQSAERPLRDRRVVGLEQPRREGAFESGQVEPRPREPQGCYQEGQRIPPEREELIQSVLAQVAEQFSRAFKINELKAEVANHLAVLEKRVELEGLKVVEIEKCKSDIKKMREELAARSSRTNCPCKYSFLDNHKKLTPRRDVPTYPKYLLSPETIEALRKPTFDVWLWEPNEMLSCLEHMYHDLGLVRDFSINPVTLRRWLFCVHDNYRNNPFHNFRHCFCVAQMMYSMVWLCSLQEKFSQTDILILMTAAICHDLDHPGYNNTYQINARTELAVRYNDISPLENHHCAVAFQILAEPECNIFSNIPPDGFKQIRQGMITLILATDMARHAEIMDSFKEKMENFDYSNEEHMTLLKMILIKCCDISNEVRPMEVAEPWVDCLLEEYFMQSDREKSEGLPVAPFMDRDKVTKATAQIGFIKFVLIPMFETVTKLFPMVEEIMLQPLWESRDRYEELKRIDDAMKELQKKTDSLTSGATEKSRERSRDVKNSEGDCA

In turn, `N#Cc1c(N2CCC3(CCC3)CC2)c2cc(N3CC(O)C3)ncc2[nH]c1=O` [Compound 51, 6-(3-hydroxyazetidin-1-yl)-2-oxo-4-(7-azaspiro[3.5]nonane-7-yl)-1,2-dihydro-1,7-naphthyridin-3-carbonitrile] came in with a half-life in data set [1] of 2.1 h. In data set [2], the “Original drug residual % at 60 min” value turned out to be 74.1%, the “k” value was 0.9418 min⁻¹ and the CLint is reported as 0.0110 mL · min^−1 · mg^−1 proteins.
Take `N#Cc1c(N2CCC3(CCC3)CC2)c2cc(N3CC(N)C3)ncc2[nH]c1=O` [Compound 53, 6-(3-aminoazetidin-1-yl)-2-oxo-4-(7-azaspiro[3.5]nonane-7-yl)-1,2-dihydro-1,7-naphthyridin-3-carbonitrile]: in data set [1], the half-life is 10.5 h. For the same molecule, in data set [2], the “Original drug residual % at 60 min” value is 91.4%, the “k” value was 0.4821 min⁻¹ and the CLint is listed as 0.0022 mL · min^−1 · mg^−1 proteins.
For `Cc1cc2c(N3CCC4(CCC4)CC3)c(C#N)c(=O)[nH]c2cn1` [Compound 65, 6-methyl-2-oxo-4-(7-azaspiro[3.5]nonane-7-yl)-1,2-dihydro-1,7-naphthyridin-3-carbonitrile], the “Vz_obs iv (apparent distribution volume)” value in data set [3] (intravenous bolus 1 mg/kg) was found to be 0.66 L/kg; in data set [4] it was 1.75 L/kg. In addition, the Tmax was 0.5 h in data set [3] (po, intragastric 2 mg/kg) and 0.5 h in data set [5]. Also, the AUC(0-inf) in data set [3] (po, intragastric 2 mg/kg, read-out: AUCinf po) is 543 ng·h/mL; in data set [3] (setting [8]), 1060 ng·h/mL. The half-life is 0.47 h in data set [3] (po, intragastric 2 mg/kg, read-out: tz1/2 po (terminal elimination half-life) (converted)); 0.49 h in data set [3] (setting [9]); 1.47 h in data set [4]; 2.25 h in data set [5]. For the same molecule, the bioavailability in data set [3] (dose iv/po 1/2 mg/kg) was 25.5%; in data set [5] it was 51.8%. The figures for the clearance in data set [3] (intravenous bolus 1 mg/kg) and in data set [4] were 15.7 mL/min/kg and 13.8 mL/min/kg, respectively. Besides, the AUC(0-t) in data set [4] is 1240 ng·h/mL; in data set [5] it was 3000 ng·h/mL.
As to `CCc1cc2c(N3CCC4(CC3)CC4)c(C#N)c(=O)[nH]c2cn1` [Compound 76, 6-ethyl-2-oxo-4-(6-azaspiro[2.5]octane-6-yl)-1,2-dihydro-1,7-naphthyridin-3-carbonitrile], the half-life in data set [1] turned out to be 7.7 h. In addition, in data set [4], the “Vz_obs iv (apparent distribution volume)” value is given as 1.25 L/kg, the AUC(0-t) stood at 1010 ng·h/mL, the clearance was 17.3 mL/min/kg and the half-life is 0.89 h. In addition, in data set [5], the Tmax is 1 h, the AUC(0-t) was 5750 ng·h/mL, the half-life is 9.6 h and the bioavailability worked out at 113%. Further, in data set [2], the “Original drug residual % at 60 min” value turned out to be 87.3%, the “k” value was 0.0015 min⁻¹ and the CLint is 0.0030 mL · min^−1 · mg^−1 proteins.
In data set [1], `N#Cc1c(N2CCC3(CC2)CC3)c2ncccc2[nH]c1=O` [Compound 80, 2-oxo-4-(6-azaspiro[2.5]octane-6-yl)-1,2-dihydro-1,5-naphthyridin-3-carbonitrile] yielded a half-life of 0.792 h. In data set [2], the “Original drug residual % at 60 min” value was 41.7%, the “k” value came out at 0.9877 min⁻¹ and the CLint is listed as 0.0292 mL · min^−1 · mg^−1 proteins.
`CC(C)(O)c1cc2c(N3CCC4(CCC4)CC3)c(C#N)c(=O)[nH]c2cn1` [Compound 82, 6-(2-hydroxypropan-2-yl)-2-oxo-4-(7-azaspiro[3.5]nonane-7-yl)-1,2-dihydro-1,7-naphthyridin-3-carbonitrile] showed a half-life in data set [1] of 2.07 h. For the same molecule, in data set [2], the “Original drug residual % at 60 min” value is reported as 72.4%, the “k” value was determined as 0.9760 min⁻¹ and the CLint was 0.0112 mL · min^−1 · mg^−1 proteins.
With `CC(C)(O)c1cc2c(N3CCC4(CC3)CC4)c(C#N)c(=O)[nH]c2cn1` [Compound 84, 6-(2-hydroxypropan-2-yl)-2-oxo-4-(6-azaspiro[2.5]octane-6-yl)-1,2-dihydro-1,7-naphthyridin-3-carbonitrile], in data set [4], the “Vz_obs iv (apparent distribution volume)” value is 1.16 L/kg, the AUC(0-t) stood at 2430 ng·h/mL, the clearance was 8.17 mL/min/kg and the half-life is 1.89 h. For the same molecule, in data set [5], the Tmax was found to be 1 h, the AUC(0-t) was 7580 ng·h/mL, the half-life was 3.24 h and the bioavailability came to 62.5%.
Consider `N#Cc1c(N2CCC3(CC2)CC3)c2cc(C(O)C3CC3)ncc2[nH]c1=O` (stereo not drawn) [Compound 90, 6-(cyclopropyl (hydroxy)methyl)-2-oxo-4-(6-azaspiro[2.5]octane-6-yl)-1,2-dihydro-1,7-naphthyridin-3-carbonitrile], for which the half-life in data set [1] stood at 3.12 h. In addition, in data set [4], the “Vz_obs iv (apparent distribution volume)” value came out at 1.38 L/kg, the AUC(0-t) was found to be 1590 ng·h/mL, the clearance was 10.5 mL/min/kg and the half-life was 1.48 h. Moreover, in data set [5], the Tmax was 1 h, the AUC(0-t) came to 3700 ng·h/mL, the half-life is 4.49 h and the bioavailability was found to be 47.4%. In data set [2], the “Original drug residual % at 60 min” value is reported as 80.5%, the “k” value was 0.0037 min⁻¹ and the CLint was 0.0074 mL · min^−1 · mg^−1 proteins.
As for `CNC(=O)c1cc2c(N3CCC4(CC3)CC4)c(C#N)c(=O)[nH]c2cn1` [Compound 96, 3-cyano-N-methyl-2-oxo-4-(6-azaspiro[2.5]octane-6-yl)-1,2-dihydro-1,7-naphthyridin-6-formamide], in data set [4], the “Vz_obs iv (apparent distribution volume)” value is on record as 0.57 L/kg, the AUC(0-t) was determined as 769 ng·h/mL, the clearance is 22 mL/min/kg and the half-life is 0.3 h.
For `CCc1cc2c(N3CCC(C)(OC)CC3)c(C#N)c(=O)[nH]c2cn1` [Compound 107, 6-ethyl-4-(4-methoxy-4-methylpiperidin-1-yl)-2-oxo-1,2-dihydro-1,7-naphthyridin-3-carbonitrile], the results for the “Vz_obs iv (apparent distribution volume)” value in data set [3] (intravenous bolus 1 mg/kg) and in data set [4] were 2.05 L/kg and 2.13 L/kg, respectively. The time of peak concentration (Tmax) in data set [3] (po, intragastric 1 mg/kg) came out at 0.5 h; in data set [5], 0.5 h. Further, the AUC(0-inf) is 757 ng·h/mL in data set [3] (po, intragastric 1 mg/kg, read-out: AUCinf po) and 1230 ng·h/mL in data set [3] (setting [8]). The half-life in data set [3] (po, intragastric 1 mg/kg, read-out: tz1/2 po (terminal elimination half-life) (converted)) was 2.56 h; in data set [3] (setting [9]) it was 1.64 h; in data set [4], 1.25 h; in data set [5], 2.68 h. Besides, the bioavailability came out at 61.5% in data set [3] (dose iv/po 1/1 mg/kg) and 56.8% in data set [5]. The clearance was 16 mL/min/kg in data set [3] (intravenous bolus 1 mg/kg) and 24.2 mL/min/kg in data set [4]. Besides, the AUC(0-t) in data set [4] was determined as 748 ng·h/mL; in data set [5], 1940 ng·h/mL. The CLint in data set [6] (human liver microsome 0.5 mg protein/mL, compound 1 μM) is listed as 0.0046 mL · min^−1 · mg^−1 proteins. For the same molecule, the “k” value in data set [6] (human liver microsome 0.5 mg protein/mL, compound 1 μM, slope of log remaining amount versus time) was found to be 0.0023 min⁻¹. Also, the “Original drug residual % at 60 min” value in data set [6] (human liver microsome 0.5 mg protein/mL, compound 1 μM, β-NADPH 1 mM, 37° C., 60 min) is recorded as 88.5%. In data set [6] (human, liver microsomes), this molecule registered a half-life at 1 μM of 5.02 h.
As for `CC(C)Cn1c(=O)n(C)c(=O)c2[nH]cnc21` [IBMX], the “inhibition activity on PDE9” value in data set [7] is recorded as “no or very low inhibition activity”.
On to `CC(=O)Nc1ccc(-c2c[nH]c(=O)cn2)cc1` [SKF94120], for which, in data set [7], the “inhibition activity on PDE9” value is “no or very low inhibition activity”.
For `OCCN(CCO)c1nc(N2CCCCC2)c2nc(N(CCO)CCO)nc(N3CCCCC3)c2n1` [dipyridamole], the “inhibition activity on PDE9” value in data set [7] is listed as “no or very low inhibition activity”.
With `COc1ccc(C2CNC(=O)C2)cc1OC1CCCC1` (stereo not drawn) [rolipram], the “inhibition activity on PDE9” value in data set [7] is listed as “no or very low inhibition activity”.
Consider `CCOC(=O)C1=C[C@]2(CC)CCCN3CCc4c(n1c1ccccc41)[C@@H]32` [vinpocetine], for which, in data set [7], the “inhibition activity on PDE9” value is on record as “no or very low inhibition activity”.
